Drawing on ChEMBL document CHEMBL3576846, “Privileged Structures Meet Human T-Cell Leukemia Virus-1 (HTLV-1): C2-Symmetric 3,4-Disubstituted Pyrrolidines as Nonpeptidic HTLV-1 Protease Inhibitors” (J Med Chem, 2015), this text covers Ki for ten compounds.

The test can be described thus: Inhibition of HTLV-1 protease using (RE(Edans)TKVLVVQPK(Dabsyl)R) as substrate by fluorescence assay. Further details: species or system Human T-cell leukemia virus type I.

In the case of `O=[N+]([O-])c1ccc(S(=O)(=O)N(Cc2ccccc2)[C@H]2CNC[C@@H]2N(Cc2ccccc2)S(=O)(=O)c2ccc([N+](=O)[O-])cc2)cc1`, the inhibition constant Ki (usually a measure of affinity in units of concentration, obtained from inhibition or displacement) is 7.9 µM. As for `Cc1ccccc1S(=O)(=O)N(Cc1ccccc1)[C@H]1CNC[C@@H]1N(Cc1ccccc1)S(=O)(=O)c1ccccc1C`, the affinity corresponds to a Ki of 2.6 µM. `O=S(=O)(c1ccccc1Cl)N(Cc1ccccc1)[C@H]1CNC[C@@H]1N(Cc1ccccc1)S(=O)(=O)c1ccccc1Cl` gave an inhibitory constant (Ki) of 2.4 µM.

`C=CCN([C@H]1CNC[C@@H]1N(CC=C)S(=O)(=O)c1ccccc1)S(=O)(=O)c1ccccc1` had an inhibition constant Ki of 172 µM. Then `C=C(C)CN([C@H]1CNC[C@@H]1N(CC(=C)C)S(=O)(=O)c1ccccc1)S(=O)(=O)c1ccccc1`, with 17.8 µM; and `Nc1ccc(S(=O)(=O)N(Cc2ccccc2)[C@H]2CNC[C@@H]2N(Cc2ccccc2)S(=O)(=O)c2ccc(N)cc2)cc1`, with 0.015 µM; and `O=S(=O)(c1ccccc1)N(Cc1ccc(I)cc1)[C@H]1CNC[C@@H]1N(Cc1ccc(I)cc1)S(=O)(=O)c1ccccc1`, with over 200 µM. Then `CC(C)=CCN([C@H]1CNC[C@@H]1N(CC=C(C)C)S(=O)(=O)c1ccccc1)S(=O)(=O)c1ccccc1`, with 11.6 µM. Then `O=S(=O)(c1ccccc1)N(Cc1ccccc1)[C@H]1CNC[C@@H]1N(Cc1ccccc1)S(=O)(=O)c1ccccc1`, with 2 µM; and `O=S(=O)(c1ccccc1)N(Cc1ccc(C(F)(F)F)cc1)[C@H]1CNC[C@@H]1N(Cc1ccc(C(F)(F)F)cc1)S(=O)(=O)c1ccccc1`, with over 250 µM.
